Source: patent US6699857B1, “Tetrahydroquinolinyl 6-methyldihydrothiadiazinone derivatives and use thereof” (Bayer Aktiengesellschaft, priority 1999, dated 2004)

Row | melting point | Compound
1 | 176 to 178 °C | CC1SC(=O)NN=C1c1ccc2c(c1)CCCN2 (stereo not drawn) [Example 2]
2 | 122 to 124 °C (dec.) | CCNC(=O)N1CCCc2cc(C3=NNC(=O)SC3C)ccc21 (stereo not drawn) [Example 3]
3 | 151 to 153 °C | CCCNC(=O)N1CCCc2cc(C3=NNC(=O)SC3C)ccc21 (stereo not drawn) [Example 4]
4 | 133 to 134 °C | CCCCNC(=O)N1CCCc2cc(C3=NNC(=O)SC3C)ccc21 (stereo not drawn) [Example 5]
5 | 213 to 214 °C (dec.) | CC1SC(=O)NN=C1c1ccc2c(c1)CCCN2C(=O)Nc1ccccc1 (stereo not drawn) [Example 6]
6 | 218 to 220 °C (dec.) | CC1SC(=O)NN=C1c1ccc2c(c1)CCCN2C(=O)Nc1ccc(Cl)cc1 (stereo not drawn) [Example 7]
7 | 165 to 166 °C (dec.) | CC1SC(=O)NN=C1c1ccc2c(c1)CCCN2C(=O)Nc1cccc2ccccc12 (stereo not drawn) [Example 8]
8 | 153 to 154 °C | Cc1ccccc1NC(=O)N1CCCc2cc(C3=NNC(=O)SC3C)ccc21 (stereo not drawn) [Example 9]
9 | 158 to 160 °C | CC1SC(=O)NN=C1c1ccc2c(c1)CCCN2C(=O)NCc1ccc(F)cc1 (stereo not drawn) [Example 10]
10 | 159 to 161 °C | CC1SC(=O)NN=C1c1ccc2c(c1)CCCN2C(=O)c1ccco1 (stereo not drawn) [Example 11]
11 | 202 to 204 °C | CC1SC(=O)NN=C1c1ccc2c(c1)CCCN2C(=O)c1ccccc1 (stereo not drawn) [Example 13]
12 | 188 to 189 °C | CC1SC(=O)NN=C1c1ccc2c(c1)CCCN2C(=O)Cc1c(Cl)cccc1Cl (stereo not drawn) [Example 14]
13 | 148 to 150 °C (dec.) | CC1SC(=O)NN=C1c1ccc2c(c1)CCCN2C(=O)C1CCCCC1 (stereo not drawn) [Example 16]
14 | 172 to 174 °C | CC1SC(=O)NN=C1c1ccc2c(c1)CCCN2C(=O)CCc1ccccc1 (stereo not drawn) [Example 17]
15 | 190 to 191 °C | CC1SC(=O)NN=C1c1ccc2c(c1)CCCN2C(=O)c1cccs1 (stereo not drawn) [Example 18]
